Columns and labels:
[1] = molecular target: Serine/threonine-protein kinase MAK (Homo sapiens) (UniProt P20794); conditions: Compound concentration 1000.0 nM
[2] = molecular target: Serine/threonine-protein kinase 16 (Homo sapiens) (UniProt O75716); conditions: Compound concentration 1000.0 nM
[3] = molecular target: Platelet-derived growth factor receptor beta (Homo sapiens) (UniProt P09619); conditions: Compound concentration 1000.0 nM
[4] = molecular target: Ankyrin repeat and protein kinase domain-containing protein 1 (Homo sapiens) (UniProt Q8NFD2); conditions: Compound concentration 1000.0 nM
[5] = molecular target: 5-hydroxytryptamine receptor 2B (Homo sapiens) (UniProt P41595); conditions: Compound concentration 10.0 uM
[6] = molecular target: Bone morphogenetic protein receptor type-1A (Homo sapiens) (UniProt P36894); conditions: Compound concentration 1000.0 nM
[7] = molecular target: Dual specificity protein kinase CLK1 (Homo sapiens) (UniProt P49759); conditions: Compound concentration 1000.0 nM
[8] = molecular target: Mitogen-activated protein kinase 6 (Homo sapiens) (UniProt Q16659); conditions: Compound concentration 1000.0 nM
Rattus norvegicus = organism: Rattus norvegicus; conditions: Compound concentration 10.0 uM
[9] = molecular target: G protein-coupled receptor kinase 3 (Homo sapiens) (UniProt P35626); conditions: Compound concentration 1000.0 nM
[10] = molecular target: Serine/threonine-protein kinase pim-3 (Homo sapiens) (UniProt Q86V86); conditions: Compound concentration 1000.0 nM
[11] = molecular target: Serine/threonine-protein kinase TAO3 (Homo sapiens) (UniProt Q9H2K8); conditions: Compound concentration 1000.0 nM
[12] = molecular target: NUAK family SNF1-like kinase 2 (Homo sapiens) (UniProt Q9H093); conditions: Compound concentration 1000.0 nM
[13] = molecular target: Maternal embryonic leucine zipper kinase (Homo sapiens) (UniProt Q14680); conditions: Compound concentration 1000.0 nM
[14] = molecular target: Testis-specific serine/threonine-protein kinase 1 (Homo sapiens) (UniProt Q9BXA7); conditions: Compound concentration 1000.0 nM
[15] = molecular target: SRSF protein kinase 1 (Homo sapiens) (UniProt Q96SB4); conditions: Compound concentration 1000.0 nM
[16] = molecular target: Ribosomal protein S6 kinase alpha-1 (Homo sapiens) (UniProt Q15418); conditions: Compound concentration 1000.0 nM
[17] = molecular target: Tyrosine-protein kinase receptor Tie-1 (Homo sapiens) (UniProt P35590); conditions: Compound concentration 1000.0 nM
[18] = molecular target: Ribosomal protein S6 kinase alpha-5 (Homo sapiens) (UniProt O75582); conditions: Compound concentration 1000.0 nM
Sequence of Ribosomal protein S6 kinase alpha-5 (Homo sapiens) (O75582 whole entry, looked up): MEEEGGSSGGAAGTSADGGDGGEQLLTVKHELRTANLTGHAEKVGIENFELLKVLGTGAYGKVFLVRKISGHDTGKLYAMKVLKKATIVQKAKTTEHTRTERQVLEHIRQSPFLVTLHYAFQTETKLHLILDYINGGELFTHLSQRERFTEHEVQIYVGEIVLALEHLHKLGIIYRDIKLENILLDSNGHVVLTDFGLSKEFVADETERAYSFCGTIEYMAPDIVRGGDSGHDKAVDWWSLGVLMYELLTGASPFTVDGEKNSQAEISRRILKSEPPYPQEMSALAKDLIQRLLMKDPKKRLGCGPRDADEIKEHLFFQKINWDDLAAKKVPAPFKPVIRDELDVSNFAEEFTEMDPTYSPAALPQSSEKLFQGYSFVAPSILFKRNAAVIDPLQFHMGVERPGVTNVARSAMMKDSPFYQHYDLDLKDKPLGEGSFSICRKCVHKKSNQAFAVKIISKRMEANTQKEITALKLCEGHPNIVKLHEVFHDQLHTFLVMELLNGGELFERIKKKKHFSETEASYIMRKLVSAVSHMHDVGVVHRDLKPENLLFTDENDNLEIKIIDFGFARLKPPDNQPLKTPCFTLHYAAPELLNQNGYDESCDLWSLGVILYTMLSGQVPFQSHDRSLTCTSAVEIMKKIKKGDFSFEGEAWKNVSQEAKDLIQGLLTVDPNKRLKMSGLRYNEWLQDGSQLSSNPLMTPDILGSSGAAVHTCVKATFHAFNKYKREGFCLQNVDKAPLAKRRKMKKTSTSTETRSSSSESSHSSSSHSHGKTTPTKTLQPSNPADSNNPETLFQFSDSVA

[19] = molecular target: TGF-beta receptor type-2 (Homo sapiens) (UniProt P37173); conditions: Compound concentration 1000.0 nM
[20] = molecular target: Dual specificity tyrosine-phosphorylation-regulated kinase 1A (Homo sapiens) (UniProt Q13627); conditions: Compound concentration 1000.0 nM
[21] = molecular target: Cyclin-G-associated kinase (Homo sapiens) (UniProt O14976); conditions: Compound concentration 1000.0 nM
[22] = molecular target: Serine/threonine-protein kinase 26 (Homo sapiens) (UniProt Q9P289); conditions: Compound concentration 1000.0 nM
[23] = molecular target: Mitogen-activated protein kinase kinase kinase 13 (Homo sapiens) (UniProt O43283); conditions: Compound concentration 1000.0 nM
[24] = system: Phosphatidylinositol 4,5-bisphosphate 3-kinase catalytic subunit alpha isoform (Homo sapiens), P42336 [Q546K]; conditions: Compound concentration 1000.0 nM
[25] = molecular target: Phosphatidylinositol 3-kinase catalytic subunit type 3 (Homo sapiens) (UniProt Q8NEB9); conditions: Compound concentration 1000.0 nM
Sequence of Phosphatidylinositol 3-kinase catalytic subunit type 3 (Homo sapiens) (Q8NEB9 whole entry): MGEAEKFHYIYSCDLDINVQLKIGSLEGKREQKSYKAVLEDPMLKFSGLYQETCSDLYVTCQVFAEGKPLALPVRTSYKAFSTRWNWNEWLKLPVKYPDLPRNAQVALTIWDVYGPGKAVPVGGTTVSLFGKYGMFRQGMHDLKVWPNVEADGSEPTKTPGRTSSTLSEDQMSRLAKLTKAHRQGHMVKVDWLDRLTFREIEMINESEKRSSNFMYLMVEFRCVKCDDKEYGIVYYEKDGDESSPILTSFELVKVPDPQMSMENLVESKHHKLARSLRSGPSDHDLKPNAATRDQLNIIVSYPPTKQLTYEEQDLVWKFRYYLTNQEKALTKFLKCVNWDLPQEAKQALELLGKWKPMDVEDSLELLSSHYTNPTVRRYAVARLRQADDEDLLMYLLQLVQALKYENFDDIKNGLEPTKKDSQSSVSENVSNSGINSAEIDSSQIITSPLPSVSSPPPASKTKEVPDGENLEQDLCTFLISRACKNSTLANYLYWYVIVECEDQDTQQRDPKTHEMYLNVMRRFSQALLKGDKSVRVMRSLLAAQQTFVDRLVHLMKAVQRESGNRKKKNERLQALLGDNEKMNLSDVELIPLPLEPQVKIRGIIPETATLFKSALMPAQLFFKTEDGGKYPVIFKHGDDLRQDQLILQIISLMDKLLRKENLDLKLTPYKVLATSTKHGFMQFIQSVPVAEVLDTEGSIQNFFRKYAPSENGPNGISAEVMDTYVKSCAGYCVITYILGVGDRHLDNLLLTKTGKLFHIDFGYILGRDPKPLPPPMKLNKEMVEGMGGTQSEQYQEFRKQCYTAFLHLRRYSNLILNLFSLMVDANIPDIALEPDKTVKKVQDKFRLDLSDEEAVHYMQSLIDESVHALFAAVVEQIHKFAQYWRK

[26] = system: Leucine-rich repeat serine/threonine-protein kinase 2 (Homo sapiens), Q5S007 [G2019S]; conditions: Compound concentration 1000.0 nM
[27] = molecular target: Casein kinase I isoform delta (Homo sapiens) (UniProt P48730); conditions: Compound concentration 1000.0 nM
[28] = molecular target: Tyrosine-protein kinase Yes (Homo sapiens) (UniProt P07947); conditions: Compound concentration 1000.0 nM
[29] = molecular target: Serine/threonine-protein kinase TAO2 (Homo sapiens) (UniProt Q9UL54); conditions: Compound concentration 1000.0 nM
[30] = molecular target: Histamine H3 receptor (Homo sapiens) (UniProt Q9Y5N1); conditions: Compound concentration 10.0 uM
[31] = molecular target: Serine/threonine-protein kinase N2 (Homo sapiens) (UniProt Q16513); conditions: Compound concentration 1000.0 nM
[32] = molecular target: Homeodomain-interacting protein kinase 3 (Homo sapiens) (UniProt Q9H422); conditions: Compound concentration 1000.0 nM
Sequence of Homeodomain-interacting protein kinase 3 (Homo sapiens) (Q9H422 whole entry, looked up): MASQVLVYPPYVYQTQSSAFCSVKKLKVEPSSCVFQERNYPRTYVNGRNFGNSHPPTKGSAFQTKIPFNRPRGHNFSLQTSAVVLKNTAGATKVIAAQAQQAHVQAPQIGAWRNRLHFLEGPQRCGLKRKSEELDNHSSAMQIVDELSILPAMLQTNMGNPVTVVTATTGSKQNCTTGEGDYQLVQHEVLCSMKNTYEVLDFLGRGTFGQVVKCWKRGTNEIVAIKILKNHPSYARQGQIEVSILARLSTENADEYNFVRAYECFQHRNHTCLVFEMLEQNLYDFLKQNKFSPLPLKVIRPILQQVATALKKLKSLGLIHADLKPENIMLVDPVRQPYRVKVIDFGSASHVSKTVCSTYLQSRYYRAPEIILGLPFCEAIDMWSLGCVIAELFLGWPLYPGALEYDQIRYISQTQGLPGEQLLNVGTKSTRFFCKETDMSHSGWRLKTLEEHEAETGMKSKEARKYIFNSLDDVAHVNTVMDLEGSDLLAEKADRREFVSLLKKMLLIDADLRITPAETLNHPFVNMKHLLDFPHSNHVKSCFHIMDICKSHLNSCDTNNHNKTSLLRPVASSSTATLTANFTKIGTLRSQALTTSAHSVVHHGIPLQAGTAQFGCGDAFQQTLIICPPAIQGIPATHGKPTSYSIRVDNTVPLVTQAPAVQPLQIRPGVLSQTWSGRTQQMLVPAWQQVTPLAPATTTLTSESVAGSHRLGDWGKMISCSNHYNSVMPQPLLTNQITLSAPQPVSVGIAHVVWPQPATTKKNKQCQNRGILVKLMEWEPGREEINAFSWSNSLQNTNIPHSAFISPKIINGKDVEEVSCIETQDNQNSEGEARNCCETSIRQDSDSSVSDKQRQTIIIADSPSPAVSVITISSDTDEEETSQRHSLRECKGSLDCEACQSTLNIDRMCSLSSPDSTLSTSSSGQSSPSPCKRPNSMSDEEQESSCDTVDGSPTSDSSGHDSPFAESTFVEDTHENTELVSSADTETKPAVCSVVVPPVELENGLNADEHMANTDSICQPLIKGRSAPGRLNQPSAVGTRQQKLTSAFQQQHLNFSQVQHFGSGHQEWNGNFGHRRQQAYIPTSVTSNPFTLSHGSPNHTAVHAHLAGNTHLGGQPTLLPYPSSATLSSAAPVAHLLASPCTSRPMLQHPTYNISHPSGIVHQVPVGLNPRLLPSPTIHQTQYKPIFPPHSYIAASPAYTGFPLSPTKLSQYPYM

[33] = molecular target: Histamine H2 receptor (Homo sapiens) (UniProt P25021); conditions: Compound concentration 10.0 uM
Sequence of Histamine H2 receptor (Homo sapiens) (P25021 whole entry): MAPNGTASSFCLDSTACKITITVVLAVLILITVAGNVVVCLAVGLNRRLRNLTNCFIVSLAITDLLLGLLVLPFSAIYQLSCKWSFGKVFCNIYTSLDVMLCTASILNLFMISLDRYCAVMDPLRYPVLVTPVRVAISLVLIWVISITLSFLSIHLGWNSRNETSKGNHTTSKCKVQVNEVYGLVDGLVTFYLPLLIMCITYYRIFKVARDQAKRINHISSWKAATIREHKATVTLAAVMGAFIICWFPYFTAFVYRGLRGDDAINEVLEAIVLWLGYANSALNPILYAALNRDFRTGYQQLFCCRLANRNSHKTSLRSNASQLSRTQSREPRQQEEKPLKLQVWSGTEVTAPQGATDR

[34] = molecular target: Serine/threonine-protein kinase 32B (Homo sapiens) (UniProt Q9NY57); conditions: Compound concentration 1000.0 nM
[35] = molecular target: Mitogen-activated protein kinase kinase kinase 6 (Homo sapiens) (UniProt O95382); conditions: Compound concentration 1000.0 nM
[36] = molecular target: Sodium-dependent noradrenaline transporter (Homo sapiens) (UniProt P23975); conditions: Compound concentration 10.0 uM
Sequence of Sodium-dependent noradrenaline transporter (Homo sapiens) (P23975 whole entry): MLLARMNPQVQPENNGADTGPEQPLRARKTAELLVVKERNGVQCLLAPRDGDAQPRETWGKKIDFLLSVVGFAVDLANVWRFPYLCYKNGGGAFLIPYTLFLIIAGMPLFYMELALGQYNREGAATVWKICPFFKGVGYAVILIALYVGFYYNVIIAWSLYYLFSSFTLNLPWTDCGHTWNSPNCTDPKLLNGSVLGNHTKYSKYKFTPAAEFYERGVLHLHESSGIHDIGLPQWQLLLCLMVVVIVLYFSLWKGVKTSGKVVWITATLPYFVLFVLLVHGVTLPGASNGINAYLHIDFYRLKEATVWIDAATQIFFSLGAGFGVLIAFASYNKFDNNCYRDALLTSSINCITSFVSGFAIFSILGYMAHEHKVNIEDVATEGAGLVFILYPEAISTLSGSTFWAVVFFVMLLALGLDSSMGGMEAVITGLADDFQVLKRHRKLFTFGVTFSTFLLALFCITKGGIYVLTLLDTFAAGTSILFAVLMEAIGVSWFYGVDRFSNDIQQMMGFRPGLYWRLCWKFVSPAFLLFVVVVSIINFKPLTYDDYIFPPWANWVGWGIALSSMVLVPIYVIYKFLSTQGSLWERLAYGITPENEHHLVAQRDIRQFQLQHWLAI

[37] = system: Epidermal growth factor receptor (Homo sapiens), P00533 [UNDEFINED MUTATION]; conditions: Compound concentration 1000.0 nM
Sequence of Epidermal growth factor receptor (Homo sapiens), P00533 [UNDEFINED MUTATION] (P00533 whole entry, looked up, change not shown): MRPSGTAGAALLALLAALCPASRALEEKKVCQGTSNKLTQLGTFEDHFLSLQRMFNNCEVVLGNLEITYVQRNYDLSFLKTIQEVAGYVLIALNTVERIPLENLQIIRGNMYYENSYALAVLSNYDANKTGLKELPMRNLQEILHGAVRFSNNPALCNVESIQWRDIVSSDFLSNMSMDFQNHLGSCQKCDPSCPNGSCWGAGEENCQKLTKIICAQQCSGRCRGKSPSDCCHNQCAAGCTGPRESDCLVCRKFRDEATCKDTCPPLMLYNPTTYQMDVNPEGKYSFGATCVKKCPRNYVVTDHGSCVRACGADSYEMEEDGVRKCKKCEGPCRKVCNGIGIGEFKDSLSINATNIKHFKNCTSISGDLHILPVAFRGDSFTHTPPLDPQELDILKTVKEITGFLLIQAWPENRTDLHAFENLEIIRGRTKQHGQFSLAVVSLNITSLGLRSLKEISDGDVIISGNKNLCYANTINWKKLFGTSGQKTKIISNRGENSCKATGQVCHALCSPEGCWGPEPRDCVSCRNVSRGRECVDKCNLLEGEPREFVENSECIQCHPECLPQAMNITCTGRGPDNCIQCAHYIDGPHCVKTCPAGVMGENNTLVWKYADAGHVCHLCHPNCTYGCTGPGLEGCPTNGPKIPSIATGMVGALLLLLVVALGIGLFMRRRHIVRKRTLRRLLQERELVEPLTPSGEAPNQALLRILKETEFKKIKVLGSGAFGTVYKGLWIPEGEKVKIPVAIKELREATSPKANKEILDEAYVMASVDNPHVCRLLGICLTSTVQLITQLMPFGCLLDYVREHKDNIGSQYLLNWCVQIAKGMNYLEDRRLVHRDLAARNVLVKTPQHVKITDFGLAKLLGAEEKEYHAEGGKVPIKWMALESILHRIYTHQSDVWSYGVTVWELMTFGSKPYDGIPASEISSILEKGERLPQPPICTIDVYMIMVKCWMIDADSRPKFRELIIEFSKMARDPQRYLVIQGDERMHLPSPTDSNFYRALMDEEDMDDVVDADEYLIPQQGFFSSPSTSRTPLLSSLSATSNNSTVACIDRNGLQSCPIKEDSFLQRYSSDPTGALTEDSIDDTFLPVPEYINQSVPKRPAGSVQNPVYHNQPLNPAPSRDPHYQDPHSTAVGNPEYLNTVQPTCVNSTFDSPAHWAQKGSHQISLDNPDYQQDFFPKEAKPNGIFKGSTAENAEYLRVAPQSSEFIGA

[38] = molecular target: Ephrin type-B receptor 1 (Homo sapiens) (UniProt P54762); conditions: Compound concentration 1000.0 nM
[39] = molecular target: Serine/threonine-protein kinase tousled-like 2 (Homo sapiens) (UniProt Q86UE8); conditions: Compound concentration 1000.0 nM
[40] = molecular target: Cyclin-dependent kinase 2 homolog (Plasmodium falciparum (isolate 3D7)) (UniProt P61075); conditions: Compound concentration 1000.0 nM
[41] = system: Epidermal growth factor receptor (Homo sapiens), P00533 [UNDEFINED MUTATION]; conditions: Compound concentration 1000.0 nM; remark: listed apart in the source
[42] = molecular target: Cyclin-dependent kinase 8 (Homo sapiens) (UniProt P49336); conditions: Compound concentration 1000.0 nM
[43] = molecular target: cAMP-dependent protein kinase catalytic subunit beta (Homo sapiens) (UniProt P22694); conditions: Compound concentration 1000.0 nM
[44] = molecular target: Phosphatidylinositol 3-kinase C2 domain-containing subunit gamma (Homo sapiens) (UniProt O75747); conditions: Compound concentration 1000.0 nM

Cn1cncc1[C@@](O)(COc1ccc(C#N)cc1-c1ccc(OC(F)(F)F)cc1)c1ccc(C#N)cc1 [A-108]
residual activity [1]: 99% | residual activity [2]: 99% | residual activity [3]: 97% | residual activity [4]: 100% | inhibition [5]: 18.6% | residual activity [6]: 100% | residual activity [7]: 100% | residual activity [8]: 93% | inhibition (Rattus norvegicus): 9.56% | residual activity [9]: 100% | residual activity [10]: 100% | residual activity [11]: 100% | residual activity [12]: 100% | residual activity [13]: 79% | residual activity [14]: 70% | residual activity [15]: 97% | residual activity [16]: 72% | residual activity [17]: 100% | residual activity [18]: 81% | residual activity [19]: 96% | residual activity [20]: 99% | residual activity [21]: 91% | residual activity [22]: 99% | residual activity [23]: 72% | residual activity [24]: 85% | residual activity [25]: 100% | residual activity [26]: 91% | residual activity [27]: 94% | residual activity [28]: 100% | residual activity [29]: 98% | inhibition [30]: 17.8% | residual activity [31]: 85% | residual activity [32]: 97% | inhibition [33]: 5.38% | residual activity [34]: 97% | residual activity [35]: 100% | inhibition [36]: 5.18% | residual activity [37]: 100% | residual activity [38]: 100% | residual activity [39]: 97% | residual activity [40]: 69% | residual activity [41]: 60% | residual activity [42]: 100% | residual activity [43]: 100% | residual activity [44]: 61%

Cn1cncc1[C@](O)(COc1ccc(C#N)cc1-c1ccc(OC(F)(F)F)cc1)c1ccc(C#N)cc1 [ABT-100]
residual activity [1]: 100% | residual activity [2]: 99% | residual activity [3]: 100% | residual activity [4]: 100% | inhibition [5]: -5.75% | residual activity [6]: 91% | residual activity [7]: 70% | residual activity [8]: 85% | inhibition (Rattus norvegicus): -1.86% | residual activity [9]: 48% | residual activity [10]: 89% | residual activity [11]: 87% | residual activity [12]: 100% | residual activity [13]: 74% | residual activity [14]: 100% | residual activity [15]: 70% | residual activity [16]: 89% | residual activity [17]: 85% | residual activity [18]: 76% | residual activity [19]: 100% | residual activity [20]: 81% | residual activity [21]: 97% | residual activity [22]: 100% | residual activity [23]: 100% | residual activity [24]: 82% | residual activity [25]: 91% | residual activity [26]: 92% | residual activity [27]: 100% | residual activity [28]: 94% | residual activity [29]: 98% | inhibition [30]: 5.92% | residual activity [31]: 100% | residual activity [32]: 100% | inhibition [33]: 14.4% | residual activity [34]: 100% | residual activity [35]: 76% | inhibition [36]: 21.7% | residual activity [37]: 76% | residual activity [38]: 98% | residual activity [39]: 100% | residual activity [40]: 77% | residual activity [41]: 80% | residual activity [42]: 66% | residual activity [43]: 93% | residual activity [44]: 81%

From ChEMBL document CHEMBL4507257, “Data for DCP probe ABT-100” (2021)
